From patent US20250000842A1, “Formulation of Resiniferatoxin” (Sorrento Therapeutics, Inc., priority 2017, published 2025)

Test: Solubility comparison: recovery of RTX by HPLC after ambient and cold (5° C.) storage in various solutions
Format: physicochemical
Details: unmodified aqueous solution
Experimental: Independently of the formulations described in Example 1, a group of 12 surfactants was tested to compare the recovery of RTX based on HPLC analysis of samples following ambient and cold (5° C.) storage.

C=C(C)[C@]12C[C@@H](C)[C@@]34O[C@](Cc5ccccc5)(O[C@@H]1[C@@H]3C=C(COC(=O)Cc1ccc(O)c(OC)c1)C[C@]1(O)C(=O)C(C)=C[C@@H]41)O2 [RTX, resiniferatoxin]
solubility in water (in words): insolubility in water
